ChEMBL document CHEMBL1201862, “PubChem BioAssay data set” (2004)
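Five concentrations, 48 hours, 96-well plates. Abbreviation: GI50, concentration required for 50% inhibition of growth.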 Active and inactive are the calls of the source. No stated cut-off is given here; in the data, active = GI50 up to about 1.1 µM and inactive = higher.

Assays:
Assay in all cases: NCI tumour cell line growth inhibition, 48 h
[1] = test system: A549
[2] = test system: ACHN
[3] = test system: CAKI-1
[4] = test system: COLO 205
[5] = test system: IGROV-1
[6] = test system: LOX IMVI
[7] = test system: M14
[8] = test system: NCI-H23
[9] = test system: NCI-H460
[10] = test system: NCI/ADR-RES
[11] = test system: SF-268
[12] = test system: SF-295
[13] = test system: SK-MEL-2
[14] = test system: SN12C
[15] = test system: TK-10
[16] = test system: U-251
[17] = test system: UACC-62
[18] = test system: A498
[19] = test system: RPMI-8226
[20] = test system: HOP-92

Measured: GI50

COC(=O)C1=C(OC(=O)/C=C/c2ccc(Cl)cc2)C(C(=O)OC)[C@@]2(O)[C@@H](C(=O)OC)[C@H](C)C[C@@H]1[C@@H]2C(=O)OC (some centres not stated)
inactive: [1] 23.2 µM | [2] 22.2 µM | [3] 22.5 µM | [4] 17.1 µM | [5] 3.94 µM | [6] 13.1 µM | [7] 23.2 µM | [8] 19.5 µM | [9] 27.2 µM | [10] 21.6 µM | [11] 16.7 µM | [12] 29.4 µM | [13] 15.7 µM | [14] 19 µM | [15] 62.8 µM | [16] 28.4 µM | [17] 17.6 µM

CN(C)c1ccc(N2C(=S)SC(=N\c3ccccc3)/C2=N/c2ccccc2)cc1
inactive: [18] > 100 µM | [3] > 100 µM | [4] > 100 µM | [5] > 100 µM | [7] > 100 µM | [8] > 100 µM | [9] > 100 µM | [10] > 100 µM | [19] > 100 µM | [12] > 100 µM | [13] > 100 µM | [14] > 100 µM | [16] > 100 µM | [17] > 100 µM

COc1cc(C2C(C(=O)O)=C(CO)Oc3cc4c(cc32)OCO4)cc(OC)c1OC (configuration not stated)
inactive: [1] > 100 µM | [2] > 100 µM | [3] 44 µM | [4] > 100 µM | [20] 35.6 µM | [5] > 100 µM | [6] > 100 µM | [7] > 100 µM | [8] > 100 µM | [9] > 100 µM | [19] > 100 µM | [12] > 100 µM | [14] > 100 µM | [15] > 100 µM | [16] > 100 µM | [17] > 100 µM

CC12Nc3ccccc3C1=C(c1ccccc1)CC1C(=O)OC(=O)C12 (configuration not stated)
inactive: [1] > 100 µM | [2] > 100 µM | [4] > 100 µM | [20] > 100 µM | [5] > 100 µM | [6] > 100 µM | [7] > 100 µM | [8] > 100 µM | [9] > 100 µM | [19] > 100 µM | [11] > 100 µM | [12] > 100 µM | [13] > 100 µM | [14] > 100 µM | [15] > 100 µM | [16] > 100 µM | [17] > 100 µM

COC(=O)c1ccc(N/C=C(/C#N)c2ccsc2)cc1
inactive: [18] 4.06 µM | [1] 15.4 µM | [2] 5.97 µM | [3] 15.1 µM | [4] 67.1 µM | [5] 27.1 µM | [8] 10.7 µM | [9] 32.6 µM | [19] 20.7 µM | [11] 10.9 µM | [12] 7.18 µM | [13] 22.2 µM | [14] > 10 µM | [15] 16.8 µM | [16] 6.92 µM | [17] 20.5 µM

CCC1(c2ccccc2)C(=O)N=C(c2ccccc2)N1CCc1ccccc1 (configuration not stated)
inactive: [18] > 100 µM | [1] > 100 µM | [2] > 100 µM | [3] > 100 µM | [4] > 100 µM | [20] > 100 µM | [5] > 100 µM | [6] > 100 µM | [7] > 100 µM | [8] > 100 µM | [10] > 100 µM | [19] > 100 µM | [11] > 100 µM | [12] > 100 µM | [13] > 100 µM | [14] > 100 µM | [15] > 100 µM | [16] > 100 µM | [17] > 100 µM

CC(=O)C(C(=O)C(=O)Nc1cc(Cl)c(Cl)cc1Cl)c1csc(N)n1 (configuration not stated)
inactive: [18] > 100 µM | [1] > 100 µM | [2] > 100 µM | [3] > 100 µM | [4] > 100 µM | [20] > 100 µM | [5] > 100 µM | [6] > 100 µM | [7] > 100 µM | [8] > 100 µM | [9] > 100 µM | [19] > 100 µM | [11] > 100 µM | [12] > 100 µM | [13] > 100 µM | [14] > 100 µM | [15] > 100 µM | [16] > 100 µM | [17] > 100 µM

COc1cc2c(oc(=O)c3c4occc4cc(OC)c23)c2cccc(OCc3ccccc3)c12
inactive: [18] 34.4 µM | [1] > 100 µM | [2] > 100 µM | [3] > 100 µM | [4] > 100 µM | [20] > 100 µM | [5] > 100 µM | [6] > 100 µM | [7] 80.2 µM | [8] > 100 µM | [9] 44.9 µM | [19] > 100 µM | [11] > 100 µM | [12] 88.9 µM | [13] > 100 µM | [14] > 100 µM | [15] > 100 µM | [16] > 100 µM | [17] 86.1 µM
